According to patent US11760986B2, “Evolution of proteases” (President and Fellows of Harvard College, priority 2014, dated 2023):

Legend:
HCV protease D168E [1] = format: biochemical, hepatitis C virus; details: D168E versus wild-type HCV protease
Description: (§1) Purification and in vitro assays of evolved HCV variants. HCV protease variants were sub-cloned by Gibson assembly out of the phage genome and into the previously mentioned EP. EPs were transformed into NEB BL21 DE3 chemically competent cells. Starter cultures were grown to saturation, and 2 mL was used to inoculate 500 mL LB. At OD600=0.6, cultures were transferred to 20° C. and induced with 0.5% arabinose for 6 h. Cells were harvested by centrifugation at 5,000 g for 10 m, and resuspended in lysis/bind buffer (50 mM Tris-HCl pH 8.0, 500 mM NaCl, 10% glycerol, 5 mM imidazole). Cells were lysed by sonication for a total of 2 m, and then centrifuged for 20 m at 18,000 g to clarify the lysate. Supernatant was flowed through 0.2 mL His-pur nickel resin spin columns that were equilibrated with binding buffer (Pierce-Thermo). Resin was washed with 4 column volumes of wash buffer (50 mM Tris-HCl pH 8.0, 500 mM NaCl, 10% glycerol, 20 mM imidazole). HCV protease was eluted in 4 column volumes of 50 mM Tris-HCl pH 8.0, 500 mM NaCl, 10% glycerol, 200 mM imidazole. Samples were further purified by size exclusion chromatography on a SuperDex 75 10/300 GL column (GE Healthcare). Size exclusion was performed in 50 mM Tris-HCl pH 8.0, 100 mM NaCl, 10% glycerol, 1 mM DTT. Protein concentrations were determined by UV280 on a Nanodrop machine and calculated using an extinction coefficient of 19,000 cm^−1 M^−1 and a molecular weight of 23 kDa.
(§2) In vitro assays were performed using the commercial HCV RET Substrate 1 (Anaspec), an internally quenched probe that fluoresces upon proteolytic cleavage, according to the manufacturer's instructions. Protease and inhibitors were incubated in assay buffer at room temperature for 5 m prior to addition of substrate. […] The assay buffer contained 50 mM Tris HCl pH 8.0, 100 mM NaCl, 20% glycerol, 5 mM DTT. Assays were performed in triplicate, and initial reaction velocities were calculated and normalized to controls without inhibitor. The data was fit to the Hill Equation using Igor Pro with base and max parameters fixed at one and zero respectively.

HCV protease D168Y [2] = assay: biochemical; set-up: species or system hepatitis C virus; details: D168Y versus wild-type HCV protease
Description: as §1, §2

[3] = test system: HCV protease on the HCV PA-RNAP; details: host cells incubated with inhibitor 90 min, then HCV protease phage, luminescence after 3 h
Description: Inhibition of PA-RNAP response in host E. coli cells. […] After 3 h of incubation at 37° C., the luminescence of each culture was measured on a Tecan Infinite Pro plate reader and normalized to OD600. In the absence of inhibitor, phage-encoded protease will activate the PA-RNAP leading to robust production of luciferase. Relative dose responses to inhibitors compared to control cells without drug were measured in triplicate.

wild-type HCV protease = target: T1, wild-type HCV protease (Hepatitis C virus genotype 1a, UniProt P27958, L1039E/L1040E/I1043Q/I1044E/L1047Q/C1073S/C1078L/I1098T/Q1106K/P1112Q/L1179I/C1185S/N1200S, form not given); assay: In vitro HCV protease inhibition assay with internally quenched fluorescent substrate (HCV RET Substrate 1, Anaspec); format: biochemical; details: 40 nM protease, 7.5 μM substrate, 30° C., IC50±standard deviation
T1 construct: 6xHis-TEVcutsite-HCV protease 2610 . .; fused on or other part: N-terminal Met-6xHis-TEV site, then an NS4A cofactor peptide ([…], about NS4A 21-33 with C22S and V30N); The peptide is fused in front of NS3 residue 4; The helicase domain is absent; the chain ends at NS3 182
Description: as §1, with “Resin was washed with 4 column volumes of wash buffer (50 mM Tris-HCl pH 8.0, 500 mM NaCl, 10% glycerol, 20 mM imidazole). HCV protease was eluted in 4 column volumes of 50 mM Tris-HCl pH 8.0, 500 mM NaCl, 10% glycerol, 200 mM imidazole. Samples were further purified by size exclusion chromatography on a SuperDex 75 10/300 GL column (GE Healthcare). Size exclusion was performed in 50 mM Tris-HCl pH 8.0, 100 mM NaCl, 10% glycerol, 1 mM DTT.” left out
In vitro assays were performed using the commercial HCV RET Substrate 1 (Anaspec), an internally quenched probe that fluoresces upon proteolytic cleavage, according to the manufacturer's instructions. […] Assays were performed in triplicate, and initial reaction velocities were calculated and normalized to controls without inhibitor. […]

HCV protease D168E [4] = target: T2, HCV protease D168E (Hepatitis C virus genotype 1a, UniProt P27958, L1039E/L1040E/I1043Q/I1044E/L1047Q/C1073S/C1078L/I1098T/Q1106K/P1112Q/L1179I/C1185S/D1194E/N1200S, form not given); format: biochemical; details: HCV protease D168E; 40 nM protease, 7.5 μM substrate, 30° C.; IC50±standard deviation
T2 construct: 6xHis-TEVcutsite-HCV protease 2610 . .; fused on or other part: N-terminal Met-6xHis-TEV site, then an NS4A cofactor peptide ([…], about NS4A 21-33 with C22S and V30N); The peptide is fused in front of NS3 residue 4; The helicase domain is absent; the chain ends at NS3 182
Description: as §1, §2

HCV protease D168Y [5] = target: T3, HCV protease D168Y (Hepatitis C virus genotype 1a, UniProt P27958, C1073S/C1078L/C1185S/D1194Y/I1043Q/I1044E/I1098T/L1039E/L1040E/L1047Q/L1179I/N1200S/P1112Q/Q1106K/T1100M/T1173A); assay: biochemical
T3 construct: 6xHis (N); TEV cleavage site (N); NS4a cofactor peptide (fused in the construct, before NS3) (N); made in house; host or cells: E. coli NEB BL21 DE3
Description: as §1, §2

HCV protease = HCV protease (Hepatitis C virus genotype 1a, UniProt P27958); details: literature value (refs 35, 36); cited from earlier work

SMILES: C=C[C@@H]1C[C@]1(NC(=O)[C@@H]1C[C@@H](Oc2ncc(OC)c3ccc(Cl)cc23)CN1C(=O)[C@@H](NC(=O)OC(C)(C)C)C(C)(C)C)C(=O)NS(=O)(=O)C1CC1 [asunaprevir]
- increase of the IC50 by the mutation (HCV protease D168E [1]): ~10 fold
- increase of the IC50 by the mutation (HCV protease D168Y [2]): 30 fold
- inhibition of cellular gene expression arising from the activity of HCV protease on the HCV PA-RNAP [3]: in a dose-dependent manner

SMILES: CC(C)(C)OC(=O)N[C@H]1CCCCC/C=C\[C@@H]2C[C@@]2(C(=O)NS(=O)(=O)C2CC2)NC(=O)[C@@H]2C[C@@H](OC(=O)N3Cc4cccc(F)c4C3)CN2C1=O [danoprevir]
- IC50 (wild-type HCV protease): 0.0013 ± 0.0001 µM
- IC50 (HCV protease D168E [4]): 0.0389 ± 0.0024 µM
- increase of the IC50 by the mutation (HCV protease D168E [1]): ~30 fold
- IC50 (HCV protease D168Y [5]): 0.0344 ± 0.0028 µM
- increase of the IC50 by the mutation (HCV protease D168Y [2]): ~30 fold
- IC50 (HCV protease): ~0.0003 µM
- inhibition of cellular gene expression arising from the activity of HCV protease on the HCV PA-RNAP [3]: in a dose-dependent manner
